Measurements taken from patent publication US20210113522A1, “COUMARIN DERIVATIVE AS ANTI-ASTHMATIC AGENT, PHARMACEUTICAL COMPOSITION THEREOF, ITS PREPARATION AND USE” (I-NOVA MEDICINSKA ISTRAZIVANJA D.O.O., priority 2017, published 2021).

What was measured:
[1] = tested on: croton oil-induced ear edema; test: Croton oil-induced ear edema in mice; assay type: in vivo, Balb/c mice; details: dexamethasone 1 mg/kg, 1 2 mg/kg
Source text: The presents study aims to detect the inflammatory/anti-inflammatory potential effects of compound 1 in a model of acute skin inflammation induced by local application of phlogistic agent croton oil in Balb/c mice. The technique for croton oil-induced ear edema in mice, originally described by Tubaro et al., was followed, with modifications; see literature references 16 and 17: • 16) A. Tubaro, P. Dri, G. Delbello, C. Zilli, R. Della Loggia: The croton oil ear test revisited, Agents Actions 17 (1986) 347-349. • 17) G. Coruzzi, C. Pozzoli, M. Adami, D. Grandi, N. Guido, R. Smits, I. de Esch and R. Leurs: Strain-dependent effects of the histamine H4 receptor antagonist JNJ7777120 in a murine model of acute skin inflammation, Experimental Dermatology 21 (2011) 32-37.
Mice (total 40) were separated into 4 groups (n=10). Each group was treated under different regimen:
Cutaneous inflammation was induced in conscious mice by topical application of croton oil (5% in acetone).
Six hours after croton oil application, mice were euthanized by light ether anaesthesia, followed by cervical dislocation; both left (acetone) and right (croton oil in acetone) ears were removed, by cutting horizontally across the indentation at the base of the ear. For each mouse, the extent of the oedema was expressed as the difference in weight (Δ [mg]) between right (inflamed) and left (uninflamed) ear. The percentage increase in the oedema of the treated ear was calculated by the following formula: […]
The presents study aims to detect the inflammatory/anti-inflammatory potential effects of compound 1 in a model of acute skin inflammation induced by local application of phlogistic agent croton oil in Balb/c mice. The technique for croton oil-induced ear edema in mice, originally described by Tubaro et al., was followed, with modifications; see literature references 16 and 17.
In preliminary experiments, the effect of subcutaneous (s.c.) administration of saline, 100% DMSO or 20% 2-hydroxypropyl-β-cyclodextrin was investigated to check the vehicle effects on ear inflammation.
The statistical significance between the groups was assessed by one-way analysis of variance (ANOVA) followed by a post hoc Tukey test. The accepted level of significance for the test was P<0.05. All tests were carried out using GraphPad Software (San Diego, Calif., USA).

[2] = MTT cytotoxicity / cell survival in murine fibroblast line L20B; assay type: cell-based; details: mouse; L20B, 48 h; read-out: CC50 (cytotoxic concentration for 50% cells)
Description: (§1) Cytotoxicity of compound 1 was determined through the study of cell growth and viability by the methods of determination of maximal non-toxic concentration (MNC) and concentration required for cell viability by 50% (CC50). […] Cytotoxic concentration at 50% (CC50) was defined as the concentration of the test substance 1 at which 50% of the cells die as a result of toxicity of the test substance.
(§2) Evaluation of cytotoxicity was an important part of the assessment of anti-asthmatic activity of compound 1 since its beneficial therapeutic effect at asthma and other inflammatory respiratory diseases should be selective with little or no effects on the metabolism of host cells. The study of cytotoxicity of compound 1 was performed on two types of cell lines of murine fibroblasts L20B and L929 from European collection of cell cultures (ECACC).
(§3) Cell viability was estimated by a modification of the 3-(4,5-dimethylthiazol-2-yl)-2,5-diphenyltetrazolium bromide (MTT) assay which is one of the most frequently used methods for measuring cell proliferation and cytotoxicity; see literature reference 12: • 12) T. Mosmann: Rapid colorimetric assay for cellular growth and survival: Application to proliferation and cytotoxicity assays, J. Immunol. Methods 65 (1983) 55-63.
(§4) Cell viability was reported as the percentage (%) of viable cells in the wells treated with different concentrations of the test compound 1, compared to the control cells untreated with the substance. Maximal non-toxic concentration (MNC) and cytotoxic concentration for 50% of cells (CC50) were calculated from the constructed “dose-cellular survival” curve.
(§5) Cytotoxicity of compound 1 was determined through the study of cell growth and viability by the methods of determination of maximal non-toxic concentration (MNC) and concentration required for cell viability by 50% (CC50).
(§6) The compound 1 (Mw=410.02) under study were first dissolved in DMSO (Sigma-Aldrich) to a concentration of 0.1 mol/L (0.1 M) as a stockade later diluted in cell growth medium Dulbecco's Modified Eagle Medium (DMEM; Sigma-Aldrich) with 2% heat inactivated fetal bovine serum.
(§7) The study of cytotoxicity of compound 1 was performed on two types of murine fibroblasts cell lines: L20B and L929 from European collection of cell cultures (ECACC). Cells were routinely maintained as adherent cell cultures in DMEM medium and containing 10% Fetal bovine serum (FBS; Gibco), 2 mM L-glutamine (Sigma-Aldrich), 100 U/mL penicillin G sodium (Sigma-Aldrich), 100 μg/mL streptomycin sulphate (Sigma-Aldrich) at 37° C. in a humidified air incubator containing 5% carbon dioxide (CO2). Cultivation of the cells was continued with direct monitoring every two or three days using a phase contrast microscope. The cells are harvested in 1× trypsin/EDTA solution (Sigma-Aldrich). Cells were passages 1:3-1:5 at a density around 5-6·10^4 cells/mL, while the passage was re-suspended repeatedly.
(§8) Methods of determining cell growth, cell viability, maximal non-toxic concentration (MNC) and concentrations, required cell viability by 50% (CC50): Cell viability was estimated by a modification of the MTT [3-(4,5-dimethylthiazol-2-yl)-2,5-diphenyltetrazolium bromide] assay; see literature reference 12. The MTT reduction assay is one of the most frequently used methods for measuring cell proliferation and cytotoxicity. The intensity of colour (measured spectrophotometrically) of the MTT formazan produced by living, metabolically active cells by measuring the activity of succinate dehydrogenase, mostly located in mitochondria was proportional to the number of live cells present. MTT was a yellow water-soluble tetrazolium dye that was reduced by live, but not dead cells to a purple formazan product that was insoluble in aqueous solutions.
(§9) Each cell line was plated at an appropriate density (7.5·10^3 cells/well for L20B cell culture and 4·10^4 cells/well for L929 cell culture) in 96-well plates (Costar Corning; USA) for 24 h. […]

L20B = test: as above; assay type: cell-based
Description: as §1, §2, §3, §4, §5, §6, §7, §8, §9

For O=c1oc2cc(O)cc(O)c2c(O)c1-c1coc2c1c(=O)oc1cc(O)cc(O)c12 [Compound 1, 7,9-dihydroxy-3-(4,5,7-trihydroxy-2-oxo-2H-chromene-3-yl)-4H-furo[3,2-c]chromen-4-one], the “Ear edema Δm (right minus left ear)” value ([1]; 6 h after croton oil) was 0.0321 g, the “Percentage of increasing the ear edema” value ([1]; 6 h after croton oil) was 92.98% and the “Maximal inhibition of croton oil-induced ear oedema” value ([1]; Balb/c mice, 6 h) was ~40%. It also gave a Left ear m ([1]; left ear: 80% 2HPβCD + 20% DMSO (uninflamed), 6 h) of 0.0344 g, a Right ear m ([1]; right ear: substance + croton oil after 30 min, 6 h) of 0.0665 g and a CC50 at 48 h [2] of 9 mM. The “Cell survival, cell culture L20B” value (L20B; 0.0001 mg/mL of 1, 48 h) was 103.3%, the “Cell survival, cell culture L20B” value (L20B; 0.001 mg/mL of 1, 48 h) was 99.7% and the “Cell survival, cell culture L20B” value (L20B; 0.01 mg/mL of 1, 48 h) was 94.5%. The “Cell survival, cell culture L20B” value (L20B; 0.05 mg/mL of 1, 48 h) was 91.3%, the “Cell survival, cell culture L20B” value (L20B; 0.1 mg/mL of 1, 48 h) was 88.2% and the “Cell survival, cell culture L20B” value (L20B; 0.5 mg/mL of 1, 48 h) was 85.6%. The “Cell survival, cell culture L20B” value (L20B; 1 mg/mL of 1, 48 h) was 72.4%, the “Cell survival, cell culture L20B” value (L20B; 5 mg/mL of 1, 48 h) was 60.2% and the “Cell survival, cell culture L20B” value (L20B; 10 mg/mL of 1, 48 h) was 48.5%. The “Cytotoxicity (overall, in words)” value (L20B; L20B, 48 h) was “low cytotoxicity” and the “Typical cytopathology characterizing the toxic effect (microscopic morphology of monolayers)” value (L20B; L20B, 48 h, 0.0001-10 mg/mL) was “not registered”.
